Data reported in patent US20250382264A1, “HETEROCYCLE-CONTAINING AMINO ACID COMPOUND AND COMPLEX” (AICHI STEEL CORPORATION, priority 2022, published 2025).

Test system: not listed separately
Experiment: Absorbance of aqueous iron complex solution irradiated with ultraviolet rays (253.7 nm)
Type: physicochemical
Settings: aqueous solution of the Fe complex of the named ligand, Fe 100 μM, pH 5.0, ultraviolet 253.7 nm, 10-mm cell
Method: For comparison, absorbance measurement was performed using an aqueous solution of each of an iron complex of ethylenediaminetetraacetic acid (EDTA) (hereinafter, referred to as “Fe-EDTA”), an iron complex of diethylenetriamine-N,N,N',N'',N''-pentaacetic acid (DTPA) (hereinafter, referred to as “Fe-DTPA”), an iron complex of hydroxybenzylethylenediamine (HBED) (hereinafter, referred to as “Fe-HBED”), an iron complex of N,N'-ethylene-bis([…]) (hereinafter, referred to as “Fe-EDDHA”), an iron complex of citric acid, and an iron complex (hereinafter, referred to as “Fe-PDMA”) of a compound represented by the following formula (hereinafter, referred to as “PDMA”). […] Subsequently, a deionized water was added to fill up to 220 mL. This aqueous solution was left to stand at a temperature of 25° C. for 1 hour to yield an aqueous solution of an iron complex having an Fe concentration of 100 μM (5.6 ppm). Thereafter, the absorbance of this aqueous complex solution was measured. […] Subsequently, a deionized water was added to fill up to 220 mL. […] Thereafter, the absorbance of this aqueous complex solution was measured in the same manner as described above (see Table 1). […] Subsequently, about 220 mL of a deionized water was added to the resultant mixture to yield an aqueous complex solution having an Fe concentration of 100 μM (5.6 ppm).

Molecule | Absorbance
O=C(CO)N[C@@H](CCN1CCC[C@H]1C(=O)O)C(=O)O [Compound V5] | 0.350
O=C(O)CN[C@@H](CCN1CCC[C@H]1C(=O)O)C(=O)O [Compound V6] | 0.378
O=C(O)[C@@H](O)CCN1CCC[C@H]1C(=O)O [Compound V2] | 0.193
N[C@@H](CCN1CCC[C@H]1C(=O)O)C(=O)O [Compound V3] | 0.190
CN(CCC(=O)O)[C@@H](CCN1CCC[C@H]1C(=O)O)C(=O)O [Compound V7] | 0.354
CC(=O)N[C@@H](CCN1CCC[C@H]1C(=O)O)C(=O)O [Compound V4] | 0.144
N[C@@H](CCN1CC[C@H]1C(=O)O)C(=O)O [Compound V8] | 0.195

More lines, now with the values ahead:

Absorbance | Molecule
0.644 | O=C(O)C(O)CCN[C@@H](CCN1CCC[C@H]1C(=O)O)C(=O)O (stereo partly shown) [Fe-PDMA]
0.332 | O=C(O)[C@@H](O)CCN1CC[C@H]1C(=O)O [Compound V9]
1.452 | O=C([O-])CN(CCN(CC(=O)[O-])CC(=O)[O-])CC(=O)[O-].[Fe+3] [Fe-EDTA, iron complex of ethylenediaminetetraacetic acid]
1.073 | iron complex of diethylenetriamine-N,N,N′,N″,N″-pentaacetic acid [Fe-DTPA]
0.914 | iron complex of hydroxybenzylethylenediamine [Fe-HBED]

Test system: corn variety "Launcher 82"
Experiment: Plant cultivation test (1): hydroponic cultivation of corn, leaf color (SPAD value)
Type: in vivo
Settings: 3 mL iron material with Fe 100 μM, 3rd day after administration, average of two pots
Method: Seeds of corn variety “Launcher 82” were placed on a paper towel wetted with tap water. 8 days after germination, the seedlings were immersed in 45 mL of a hydroponic nutrient solution (a liquid based on the formulation in the Horticultural Experiment Station). 2 days after that, 3 mL of iron materials including various aqueous complex solutions were administered to the seedlings. Then, on the 3rd day after the administration of the iron materials, the leaf color (SPAD value) of corn was measured. This hydroponic cultivation was performed in two pots, and the average value of the SPAD values was calculated. For comparison, an experiment of administering only iron sulfate and an experiment of administering no iron material were also performed.

Molecule | SPAD value Average
O=S(=O)([O-])[O-].[Fe+2] [Fe only, iron sulfate] | 9.5
